Reference: US20230295234A1, “ANTIMICROBIAL PEPTIDOMIMETICS” (SPEXIS AG, priority 2020, published 2023)
Read-outs that look alike come from different tables or passages of the source. Bridge positions count the residues as written; N and C are the ends. Square brackets hold non-standard residues; d marks the D form. Peptide text beside a SMILES is read from it. * marks the point of attachment. Val(Nα-amidino) = CC(C)[C@H](NC(=N)N)C(=O)*; Pro(4R-NH2) = N[C@H]1CN[C@H](C(=O)O)C1; Gly(N-2-aminoethyl) = NCCNCC(=O)O; Hyp = O=C(O)[C@@H]1C[C@@H](O)CN1; Gly(N(CH2)3NH2) = NCCCNCC(=O)O; Pen = CC(C)(S)[C@H](N)C(=O)O; dDab = NCC[C@@H](N)C(=O)O; Dab = NCC[C@H](N)C(=O)O; Nlys = NCCCCNCC(=O)O

Experiments:
[1] = tested on: Escherichia coli MCR-1 Af 45
Procedure, shortened: (§1)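 Two-fold serial dilutions of peptide, in water with polysorbate 80 (0.002% final), met bacteria adjusted to 0.5 McFarland then diluted to about 5×10^5 CFU/mL. Medium was cation-adjusted Mueller-Hinton II broth; peptide stocks were 1 mg/mL in sterile water.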

[2] = tested on: Escherichia coli ATCC 25922
Procedure, shortened: as §1

[3] = tested on: Klebsiella pneumoniae SSI3010
Procedure, shortened: as §1

[4] = tested on: human red blood cells (hRBC); experiment: Hemolysis of human red blood cells; format: cell-based
Procedure, shortened: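 PBS-washed human red blood cells (20% v/v) were incubated with peptide at 200 μg/mL for 1 h at 37 °C with shaking. Supernatant OD was read at 540 nm after 8-fold dilution. Hemolysis is expressed as percent of the water control.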

[5] = Mueller-Hinton broth II, 18-20 hours at 35° C.

Structure (SMILES)	Escherichia coli MCR-1 Af 45 MIC ([1]; MCR-1 Af 45) [µg/mL]	Escherichia coli ATCC 25922 MIC ([2]; ATCC 25922) [µg/mL]	Klebsiella pneumoniae SSI3010 MIC ([3]; SSI3010) [µg/mL]	Hemolysis at 0.2 g/L ([4]; red cells of human, 1 h) [%]	Escherichia coli MCR-1 Af 45 MIC [1, 5] [µg/mL]	Escherichia coli ATCC 25922 MIC [2, 5] [µg/mL]	Klebsiella pneumoniae SSI3010 MIC [3, 5] [µg/mL]	Hemolysis at 0.2 g/L ([4]; 20% hRBC, 1 h at 37° C.) [%]
CC[C@H](C)[C@H](NC(=O)[C@@H]1CCCN1C(=O)[C@@H](NC(=O)[C@@H]1CCCN1C(=O)[C@H](CCCNC(=N)N)NC(=O)[C@@H](N)CCCCN)C(C)C)C(=O)N[C@H](C(=O)N[C@@H](Cc1ccc(O)cc1)C(=O)N[C@@H]1C(=O)N[C@@H](CC(N)=O)C(=O)N[C@@H](CCCNC(=N)N)C(=O)N[C@@H](CCN)C(=O)N[C@@H]([C@@H](C)O)C(=O)N[C@H](CCN)C(=O)N[C@@H](CCCCN)C(=O)N[C@H](C(=O)N[C@@H](CCN)C(=O)N[C@@H](CCCNC(=N)N)C(=O)N[C@@H](Cc2ccc(O)cc2)C(=O)O)CSSC1(C)C)[C@@H](C)O [Example 87] (HELM PEPTIDE1{K.R.P.V.P.I.T.Y.[Pen].N.R.[Dab].T.[NCC[C@@H](N[*:1])C(=O)[*:2]].K.C.[Dab].R.Y}$PEPTIDE1,PEPTIDE1,9:R3-16:R3$$$V2.0)	≤0.03125	≤0.03125	0.25	0	–	–	–	–
CC[C@H](C)[C@H](NC(=O)[C@@H]1C[C@@H](N)CN1C(=O)[C@@H](NC(=N)N)C(C)C)C(=O)N[C@H](C(=O)N[C@@H](Cc1ccc(O)cc1)C(=O)N[C@@H]1C(=O)N[C@@H](CC(N)=O)C(=O)N[C@@H](CCCNC(=N)N)C(=O)N[C@@H](CCN)C(=O)N[C@@H]([C@@H](C)O)C(=O)N[C@H](CCN)C(=O)N[C@@H](CCCCN)C(=O)N[C@H](C(=O)N[C@@H](Cc2ccc(O)cc2)C(=O)N[C@@H](CCCNC(=N)N)C(=O)N[C@@H](Cc2ccc(O)cc2)C(=O)O)CSSC1(C)C)[C@@H](C)O [Example 199] ({Val(Nα-amidino)}-[Pro(4R-NH2)]ITY[Pen]NR[Dab]T[dDab]KCYRY-OH; disulfide 5-12)	–	0.25	0.25	0	0.125	–	–	–
CC[C@H](C)[C@H](NC(=O)[C@@H]1C[C@@H](O)CN1C(=O)[C@@H](N)C(C)C)C(=O)N[C@H](C(=O)N[C@@H](Cc1ccc(O)cc1)C(=O)N[C@@H]1C(=O)N[C@@H](CC(N)=O)C(=O)N[C@@H](CCCNC(=N)N)C(=O)N[C@@H](CCCCN)C(=O)N[C@@H]([C@@H](C)O)C(=O)N[C@H](CCN)C(=O)N[C@@H](CCCCN)C(=O)N[C@H](C(=O)N[C@@H](CCN)C(=O)N[C@@H](CCCNC(=N)N)C(=O)N[C@@H](Cc2ccc(O)cc2)C(=O)O)CSSC1(C)C)[C@@H](C)O [Example 167] (HELM PEPTIDE1{V.[Hyp].I.T.Y.[Pen].N.R.K.T.[NCC[C@@H](N[*:1])C(=O)[*:2]].K.C.[Dab].R.Y}$PEPTIDE1,PEPTIDE1,6:R3-13:R3$$$V2.0)	–	0.25	0.5	0	0.125	–	–	–
CC[C@H](C)[C@H](NC(=O)[C@@H]1C[C@@H](O)CN1C(=O)[C@@H](NC(=O)CN(CCN)C(=O)CNCCCCN)C(C)C)C(=O)N[C@H](C(=O)N[C@@H](Cc1ccc(O)cc1)C(=O)N[C@@H]1C(=O)N[C@@H](CC(N)=O)C(=O)N[C@@H](CCCNC(=N)N)C(=O)N[C@@H](CCN)C(=O)N[C@@H]([C@@H](C)O)C(=O)N[C@H](CCN)C(=O)N[C@@H](CCCCN)C(=O)N[C@H](C(=O)N[C@@H](CCN)C(=O)N[C@@H](CCCNC(=N)N)C(=O)N[C@@H](Cc2ccc(O)cc2)C(=O)O)CSSC1(C)C)[C@@H](C)O [Example 56, Nlys-Ndab-Val-Hyp-Ile-Thr-Tyr-Pen-Asn-Arg-Dab-Thr-^DDab-Lys-Cys-Dab-Arg-Tyr] (H-[Nlys][Gly(N-2-aminoethyl)]V[Hyp]ITY[Pen]NR[Dab]T[dDab]KC[Dab]RY-OH; disulfide 8-15)	0.0625	0.0625	0.125	0	–	–	–	–
CC[C@H](C)[C@H](NC(=O)[C@@H](NC(=O)[C@@H]1C[C@@H](O)CN1C(=O)[C@@H](NC(=N)N)C(C)C)[C@@H](C)CC)C(=O)N[C@@H](Cc1ccc(O)cc1)C(=O)N[C@@H]1C(=O)N[C@@H](CC(N)=O)C(=O)N[C@@H](CCCNC(=N)N)C(=O)N[C@@H](CCN)C(=O)N[C@@H]([C@@H](C)O)C(=O)N[C@H](CCN)C(=O)N[C@@H](CCCCN)C(=O)N[C@H](C(=O)N[C@@H](CCN)C(=O)N[C@@H](CCCNC(=N)N)C(=O)N[C@@H](Cc2ccc(O)cc2)C(=O)O)CSSC1(C)C [Example 189] (HELM PEPTIDE1{[CC(C)[C@H](NC(=N)N)C(=O)[*:2]].[Hyp].I.I.Y.[Pen].N.R.[Dab].T.[NCC[C@@H](N[*:1])C(=O)[*:2]].K.C.[Dab].R.Y}$PEPTIDE1,PEPTIDE1,6:R3-13:R3$$$V2.0)	–	–	–	–	0.03125	0.03125	0.0625	0
CC[C@H](C)[C@H](NC(=O)[C@@H](NC(=O)[C@@H]1CCCN1C(=O)[C@@H](NC(=O)[C@@H]1CCCN1C(=O)[C@H](CCCCN)NC(=O)[C@@H](N)CCCCN)C(C)C)[C@@H](C)CC)C(=O)N[C@@H](Cc1ccc(O)cc1)C(=O)N[C@H]1CSSC[C@@H](C(=O)N[C@@H](CCN)C(=O)N(CCCCN)CC(=O)N[C@@H](Cc2ccc(O)cc2)C(=O)O)NC(=O)[C@H](CCCCN)NC(=O)[C@@H](CCN)NC(=O)[C@H]([C@@H](C)O)NC(=O)[C@H](CCN)NC(=O)[C@H](CCCNC(=N)N)NC(=O)[C@H](CC(N)=O)NC1=O [Example 109] (HELM PEPTIDE1{K.K.P.V.P.I.I.Y.C.N.R.[Dab].T.[NCC[C@@H](N[*:1])C(=O)[*:2]].K.C.[Dab].[NCCCCN(CC(=O)[*:2])[*:1]].Y}$PEPTIDE1,PEPTIDE1,9:R3-16:R3$$$V2.0)	0.0625	0.0625	0.125	0	–	–	–	–
CC[C@H](C)[C@H](NC(=O)[C@@H]1C[C@@H](O)CN1C(=O)[C@@H](N)C(C)C)C(=O)N[C@H](C(=O)N[C@@H](Cc1ccc(O)cc1)C(=O)N[C@@H]1C(=O)N[C@@H](CC(N)=O)C(=O)N[C@@H](CCCNC(=N)N)C(=O)N[C@@H](CCN)C(=O)N[C@@H]([C@@H](C)O)C(=O)N[C@H](CCN)C(=O)N[C@@H](CCCCN)C(=O)N[C@H](C(=O)N[C@@H](CCN)C(=O)N[C@@H](CCCNC(=N)N)C(=O)N[C@@H](Cc2ccc(O)cc2)C(=O)O)CSSC1(C)C)[C@@H](C)O [Example 148] (HELM PEPTIDE1{V.[Hyp].I.T.Y.[Pen].N.R.[Dab].T.[NCC[C@@H](N[*:1])C(=O)[*:2]].K.C.[Dab].R.Y}$PEPTIDE1,PEPTIDE1,6:R3-13:R3$$$V2.0)	–	≤0.125	0.25	0	0.125	–	–	–
CC[C@H](C)[C@H](NC(=O)[C@@H]1C[C@@H](N)CN1C(=O)[C@@H](NC(=O)[C@@H]1C[C@@H](O)CN1C(=O)CNCCCN)C(C)C)C(=O)N[C@H](C(=O)N[C@@H](Cc1ccc(O)cc1)C(=O)N[C@@H]1C(=O)N[C@@H](CC(N)=O)C(=O)N[C@@H](CCCNC(=N)N)C(=O)N[C@@H](CCN)C(=O)N[C@@H]([C@@H](C)O)C(=O)N[C@H](CCN)C(=O)N[C@@H](CCCCN)C(=O)N[C@H](C(=O)N[C@@H](CCN)C(=O)N[C@@H](CCCNC(=N)N)C(=O)N[C@@H](Cc2ccc(O)cc2)C(=O)O)CSSC1(C)C)[C@@H](C)O [Example 45, Norn-Hyp-Val-Pro((4R)NH2)-Ile-Thr-Tyr-Pen-Asn-Arg-Dab-Thr-^DDab-Lys-Cys-Dab-Arg-Tyr] (H-[Gly(N(CH2)3NH2)][Hyp]V[Pro(4R-NH2)]ITY[Pen]NR[Dab]T[dDab]KC[Dab]RY-OH; disulfide 8-15)	0.0625	0.0625	0.125	0	–	–	–	–
CC[C@H](C)[C@H](NC(=O)[C@@H]1CCCN1C(=O)[C@@H](NC(=O)CN(C)C(=O)[C@H](CCCNC(=N)N)NC(=O)[C@@H](N)CCCCN)C(C)C)C(=O)N[C@H](C(=O)N[C@@H](Cc1ccc(O)cc1)C(=O)N[C@@H]1C(=O)N[C@@H](CC(N)=O)C(=O)N[C@@H](CCCNC(=N)N)C(=O)N[C@@H](CCN)C(=O)N[C@@H]([C@@H](C)O)C(=O)N[C@H](CCN)C(=O)N[C@@H](CCCCN)C(=O)N[C@H](C(=O)N[C@@H](CCN)C(=O)N[C@@H](CCCNC(=N)N)C(=O)N[C@@H](Cc2ccc(O)cc2)C(=O)O)CSSC1(C)C)[C@@H](C)O [Example 88, Lys-Arg-Sar-Val-Pro-Ile-Thr-Tyr-Pen-Asn-Arg-Dab-Thr-^DDab-Lys-Cys-Dab-Arg-Tyr] (HELM PEPTIDE1{K.R.[Sar].V.P.I.T.Y.[Pen].N.R.[Dab].T.[NCC[C@@H](N[*:1])C(=O)[*:2]].K.C.[Dab].R.Y}$PEPTIDE1,PEPTIDE1,9:R3-16:R3$$$V2.0)	≤0.03125	≤0.03125	0.0625	0	–	–	–	–
